Test results reported in patent publication US20240246968A1, “SMALL MOLECULE INHIBITORS OF KRAS G12C MUTANT” (Merck Sharp & Dohme LLC, priority 2021, published 2024).
pIC50: −log10 of the molar value.

Key:
[1] = target: Gppcp-bound recombinant K-Ras4B G12C mutant protein (amino acids 1-169, C51S/C80L/C118S) (Homo sapiens, UniProt P01116, C118S/C51S/C80L/G12C); test: KRASG12C binding assay (LC-MS, compound binding rate); conditions: test compound final concentration 0.5 μM, 25° C., 1 hour
Summary of the method: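 Gppcp-bound K-Ras4B G12C (1-169; C51S/C80L/C118S), 50 nM in TBS with 0.1 mM TCEP, 0.25 mM MgCl2, 50 μM Gppcp, exposed to compound at 0.5 μM final for 1 h at 25 °C. Quenched with formic acid and analysed by intact-protein ESI LC-MS. Binding rate is the mono-adduct signal over total KRAS signal; graded A (≥80%) to E (<20%).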

MIA PaCa-2 cells = test: Growth inhibition activity on KRAS-G12C mutant cell line (MIA PaCa-2), CellTiter-Glo 3D; format: cell-based, human; conditions: Homo sapiens, MIA PaCa-2, 72 h, MIA PaCa-2, 3-day culture with compound
Summary of the method: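 Cells in RPMI1640 with 10% FBS were seeded in U-bottom plates and cultured 1 day at 37 °C, 5% CO2, then exposed to compound (0.2% DMSO final) for 3 more days. Viability read by CellTiter-Glo 3D luminescence; IC50 from growth inhibition relative to untreated wells.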

[2] = target: T1, interaction between recombinant K-Ras4B G12C mutant protein and cRAF RAS-binding domain (cRAF-RBD) (Homo sapiens, UniProt P01116, G12C); test: Inhibitory activity on interaction between KRAS G12C and cRAF (Alpha technology); format: biochemical; conditions: GMPPNP-bound KRAS G12C incubated with compound at 25° C. for 1 hour, then cRAF-RBD; Alpha signal
T1 construct: made in house; host or cells: E. coli
Summary of the method: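 GMPPNP-loaded His-tagged KRAS G12C (aa 1-169, E. coli) preincubated with compound 1 h at 25° C in Tris pH 7.5, 100 mM NaCl, 1 mM MgCl2, TCEP, 0.1% Tween 20; cRAF-RBD (aa 50-132) added, 1.5 h RT, Alpha signal read. DMSO = 0%, GDP-bound KRAS = 100% inhibition; IC50 from dose titration fit.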

| SMILES | pIC50 (MIA PaCa-2 cells) | pIC50 [2] | binding rate [1] |
| --- | --- | --- | --- |
| Cc1nc2cc(-c3cccn4c(C(=O)c5cc(F)c(NC(=O)/C=C/CNC(C)(C)CF)c(F)c5)ccc34)c(C(F)(F)F)cc2n1C [Example 76, (E)-N-(4-(8-(1,2-dimethyl-6-(trifluoromethyl)-1H-benzo[d]imidazol-5-yl)indolizine-3-carbonyl)-2,6-difluorophenyl)-4-((1-fluoro-2-methylpropan-2-yl)amino)but-2-enamide] | 6.52 | 7.12 | A (A binding rate of 80% or more is rated “A”) |
| Cc1cc2c(nc(CC(F)(F)F)n2C)c(Cl)c1-c1cccn2c(C(=O)c3cc(F)c(NC(=O)/C=C/CNC(C)(C)C)c(F)c3)ccc12 [Example 82, (E)-4-(tert-butylamino)-N-(4-(8-(4-chloro-1,6-dimethyl-2-(2,2,2-trifluoroethyl)-1H-benzo[d]imidazol-5-yl)indolizine-3-carbonyl)-2,6-difluorophenyl)but-2-enamide] | 6.59 | 7.02 | A (A binding rate of 80% or more is rated “A”) |
| Cc1nc2cc(-c3cccn4c(C(=O)c5cc(F)c(NC(=O)/C=C/CNC67CCC(F)(CC6)CC7)c(F)c5)ccc34)c(C(F)(F)F)cc2n1C [Example 85, (E)-N-(4-(8-(1,2-dimethyl-6-(trifluoromethyl)-1H-benzo[d]imidazol-5-yl)indolizine-3-carbonyl)-2,6-difluorophenyl)-4-((4-fluorobicyclo[2.2.2]octan-1-yl)amino)but-2-enamide] | 6.96 | 7.35 | A (A binding rate of 80% or more is rated “A”) |
| CO[C@H]1CC[C@H](NC/C=C/C(=O)Nc2c(F)cc(C(=O)c3cc(C)c4c(-c5c(C)cc6c(nc(C)n6C)c5Cl)cccn34)cc2F)CC1 [Example 87, (E)-N-(4-(8-(4-chloro-1,2,6-trimethyl-1H-benzo[d]imidazol-5-yl)-1-methylindolizine-3-carbonyl)-2,6-difluorophenyl)-4-(((1r,4r)-4-methoxycyclohexyl)amino)but-2-enamide] | 6.85 | 7.46 | A (A binding rate of 80% or more is rated “A”) |
| C=Cc1cc(C(=O)c2cc(F)c(NC(=O)/C=C/CN[C@H]3CC[C@H](OC)CC3)c(F)c2)n2cccc(-c3c(C)cc4c(nc(C)n4C)c3Cl)c12 [Example 88, (E)-N-(4-(8(4-chloro-1,2,6-trimethyl-1H-benzo[d]imidazol-5-yl)-1-vinylindolizine-3-carbonyl)-2,6-difluorophenyl)-4-(((1r,4r)-4-methoxycyclohexyl)amino)but-2-enamide] | 6.89 | 7.59 | A (A binding rate of 80% or more is rated “A”) |
| Cc1nc2cc(-c3cccn4c(C(=O)c5cc(F)c(NC(=O)/C=C/CN[C@@H]6CCOC6)c(F)c5)ccc34)c(C(F)(F)F)cc2n1C [Example 91] | 7.00 | 7.12 | A (A binding rate of 80% or more is rated “A”) |
| Cc1nc2cc(-c3cccn4c(C(=O)c5cc(F)c(NC(=O)/C=C/CN[C@H]6CCOC6)c(F)c5)ccc34)c(C(F)(F)F)cc2n1C [Example 92] | 6.92 | 7.10 | A (A binding rate of 80% or more is rated “A”) |
| CO[C@H]1CC[C@H](NC/C=C/C(=O)Nc2c(F)cc(C(=O)c3c(C4CC4)nc4c(-c5cc6nc(C)n(C)c6cc5C(F)(F)F)cccn34)cc2F)CC1 [Example 95, (E)-N-(4-(2-cyclopropyl-8-(1,2-dimethyl-6-(trifluoromethyl)-1H-benzo[d]imidazol-5-yl)imidazo[1,2-a]pyridine-3-carbonyl)-2,6-difluorophenyl)-4-(((1r,4r)-4-methoxycyclohexyl)amino)but-2-enamide] | 6.55 | 6.89 | A (A binding rate of 80% or more is rated “A”) |

Continued by rising pIC50 (MIA PaCa-2 cells), values first:

| pIC50 (MIA PaCa-2 cells) | pIC50 [2] | SMILES | binding rate [1] |
| --- | --- | --- | --- |
| 6.64 | 7.43 | CO[C@H]1CC[C@H](NC/C=C/C(=O)Nc2c(F)cc(C(=O)c3cc(I)c4c(-c5c(C)cc6c(nc(C)n6C)c5Cl)cccn34)cc2F)CC1 [Example 75, (E)-N-(4-(8-(4-chloro-1,2,6-trimethyl-1H-benzo[d]imidazol-5-yl)-1-iodoindolizine-3-carbonyl)-2,6-difluorophenyl)-4-(((1r,4r)-4-methoxycyclohexyl)amino)but-2-enamide] | A (A binding rate of 80% or more is rated “A”) |
| 6.89 | 7.60 | CO[C@H]1CC[C@H](NC/C=C/C(=O)Nc2c(F)cc(C(=O)c3cc(CO)c4c(-c5c(C)cc6c(nc(C)n6C)c5Cl)cccn34)cc2F)CC1 [Example 93] | A (A binding rate of 80% or more is rated “A”) |
| 6.92 | 7.29 | Cc1nc2cc(-c3cccn4c(C(=O)c5cc(F)c(NC(=O)/C=C/CNC6CCCOC6)c(F)c5)ccc34)c(C(F)(F)F)cc2n1C (stereo not drawn) [Example 78, (E)-N-(4-(8-(1,2-dimethyl-6-(trifluoromethyl)-1H-benzo[d]imidazol-5-yl)indolizine-3-carbonyl)-2,6-difluorophenyl)-4-((tetrahydro-2H-pyran-3-yl)amino)but-2-enamide] | A (A binding rate of 80% or more is rated “A”) |
| 6.92 | 7.04 | Cc1nc2cc(-c3cccn4c(C(=O)c5cc(F)c(NC(=O)/C=C/CNC67CCC(F)(CC6)C7)c(F)c5)ccc34)c(C(F)(F)F)cc2n1C [Example 84, (E)-N-(4-(8-(1,2-dimethyl-6-(trifluoromethyl)-1H-benzo[d]imidazol-5-yl)indolizine-3-carbonyl)-2,6-difluorophenyl)-4-((4-fluorobicyclo[2.2.1]heptan-1-yl)amino)but-2-enamide] | A (A binding rate of 80% or more is rated “A”) |
| 6.96 | 7.21 | Cc1nc2cc(-c3cccn4c(C(=O)c5cc(F)c(NC(=O)/C=C/CNC6CC7CCC(C6)O7)c(F)c5)ccc34)c(C(F)(F)F)cc2n1C (stereo not drawn) [Example 79, (E)-4-((8-oxabicyclo[3.2.1]octan-3-yl)amino)-N-(4-(8-(1,2-dimethyl-6-(trifluoromethyl)-1H-benzo[d]imidazol-5-yl)indolizine-3-carbonyl)-2,6-difluorophenyl)but-2-enamide] | A (A binding rate of 80% or more is rated “A”) |
| 7.00 | 7.66 | CCc1cc(C(=O)c2cc(F)c(NC(=O)/C=C/CN[C@H]3CC[C@H](OC)CC3)c(F)c2)n2cccc(-c3c(C)cc4c(nc(C)n4C)c3Cl)c12 [Example 89, (E)-N-(4-(8-(4-chloro-1,2,6-trimethyl-1H-benzo[d]imidazol-5-yl)-1-ethylindolizine-3-carbonyl)-2,6-difluorophenyl)-4-(((1r,4r)-4-methoxycyclohexyl)amino)but-2-enamide] | A (A binding rate of 80% or more is rated “A”) |
| 7.07 | 7.23 | Cc1nc2cc(-c3cccn4c(C(=O)c5cc(F)c(NC(=O)/C=C/CN[C@H]6CC[C@H](F)CC6)c(F)c5)ccc34)c(C(F)(F)F)cc2n1C [Example 80, (E)-N-(4-(8-(1,2-dimethyl-6-(trifluoromethyl)-1H-benzo[d]imidazol-5-yl)indolizine-3-carbonyl)-2,6-difluorophenyl)-4-(((1r,4r)-4-fluorocyclohexyl)amino)but-2-enamide] | A (A binding rate of 80% or more is rated “A”) |
| 7.09 | 7.40 | COCc1nc2c(Cl)c(-c3cccn4c(C(=O)c5cc(F)c(NC(=O)/C=C/CNC(C)(C)C)c(F)c5)ccc34)c(C)cc2n1C [Example 86, (E)-4-(tert-butylamino)-N-(4-(8-(4-chloro-2-(methoxymethyl)-1,6-dimethyl-1H-benzo[d]imidazol-5-yl)indolizine-3-carbonyl)-2,6-difluorophenyl)but-2-enamide] | A (A binding rate of 80% or more is rated “A”) |
| 7.15 | 7.38 | Cc1nc2cc(-c3cccn4c(C(=O)c5cc(F)c(NC(=O)/C=C/CNC6CCOC6)c(F)c5)ccc34)c(C(F)(F)F)cc2n1C (stereo not drawn) [Example 77, (E)-N-(4-(8-(1,2-dimethyl-6-(trifluoromethyl)-1H-benzo[d]imidazol-5-yl)indolizine-3-carbonyl)-2,6-difluorophenyl)-4-((tetrahydrofuran-3-yl)amino)but-2-enamide] | A (A binding rate of 80% or more is rated “A”) |
| 7.15 | 7.15 | Cc1nc2cc(-c3cccn4c(C(=O)c5cc(F)c(NC(=O)/C=C/CN[C@H]6CC[C@@H](F)CC6)c(F)c5)ccc34)c(C(F)(F)F)cc2n1C [Example 81] | A (A binding rate of 80% or more is rated “A”) |
